According to patent US20180104224A1, “PHARMACEUTICAL COMPOSITIONS COMPRISING ANTIBACTERIAL AGENTS” (priority 2014, published 2018):

Experiments:
P. aeruginosa J 154 = assay: MIC determination in Muller Hinton Agar (CLSI); assay type: cell-based, Pseudomonas aeruginosa; details: Pseudomonas aeruginosa, J154; agent alone; P. aeruginosa J 154 [Reduced OprD]
Description: (§1) The antibacterial activity of combinations according to the invention against resistant bacterial strains was investigated. Minimum Inhibitory Concentration (MIC) determination for the combinations according to invention was carried out in Muller Hinton Agar (MHA) (BD, USA) according to Clinical and Laboratory Standards Institute (CLSI) recommendations, (Clinical and Laboratory Standards Institute (CLSI), Performance Standards for Antimicrobial Susceptibility Testing, 20th Informational Supplement, M 100-S20, Volume 30, No. 1, 2010). In short, the test strains were adjusted to deliver about 10^4 CFU per spot with a multipoint inoculator (Applied Quality Services, UK). The plates were pored with MHA containing doubling concentration range of the test combinations according to invention. The plates were inoculated and were incubated at 35° C. for 18 hours.

P. aeruginosa R 70 = assay: MIC determination in Muller Hinton Agar (CLSI); assay type: cell-based, Pseudomonas aeruginosa; details: Pseudomonas aeruginosa, R70, 18 h; agent alone; P. aeruginosa R 70 [Reduced OprD + increased efflux]
Description: as §1

[1] = test system: Pseudomonas aeruginosa 1405; assay: Time kill study; assay type: cell-based; details: P. aeruginosa 1405; for effect on bacterial counts through out the duration of the study (in words): when used alone
Description: (§2) The synergistic killing effect of the combinations according to invention was studied by performing time kill studies. In a typical time kill study, the freshly grown cultures were diluted to the required cell density (initial starting inoculum) in Cation adjusted Muller Hinton broth medium (BD, USA). The antibacterial agents (either alone or in combination) at the required concentrations were added into the culture-containing medium. The samples were incubated under shaking condition (120 rpm) at 37° C. Enumeration of viable bacterial count was done every 2 hour by diluting in normal saline and plating on to the Tryptic Soya Agar plates (BD, USA). The plates were incubated for 24 hours to arrive at the viable bacterial count. The results are expressed in terms of Log10 CFU per ml. In general, the decrease of 1 Log10 CFU/ml, corresponds to 90% killing of bacteria.

[2] = test system: Pseudomonas aeruginosa R70; assay: Time kill study; assay type: cell-based; details: P. aeruginosa R70; for effect on bacterial counts through out the duration of the study (in words): when used alone
Description: as §2

[3] = test system: highly resistant strains of Pseudomonas aeruginosa; assay: MIC determination, all strains; assay type: cell-based; details: when used alone; highly resistant strains of P. aeruginosa
Description: as §1
The results on antibacterial activity of a carbapenem antibacterial agent selected from imipenem, meropenem, ertapenem and doripenem alone and in combination with Compound A or Compound B, against highly resistant strains of Pseudomonas aeruginosa are given in Table 1. […] For example, P. aeruginosa 2779 harbors resistance due to increased AmpC expression (300 times) and increased efflux; P. aeruginosa 1405 harbors resistance due to increased AmpC expression (600 times), reduced OprD expression and increased efflux; P. aeruginosa R 70 harbors resistance due to reduced OprD expression and increased efflux; and P. aeruginosa J 154 harbors resistance due to reduced OprD.

Q: Which results are given for `O=C(NNC(=O)[C@@H]1CC[C@@H]2CN1C(=O)N2OS(=O)(=O)O)[C@@H]1CCCNC1` [Compound A, trans-sulfuric acid mono-[2-(N′-[(R)-piperidin-3-carbonyl]-hydrazinocarbonyl)-7-oxo-1,6-diaza-bicyclo[3.2.1]oct-6-yl]ester]?
A: MIC (P. aeruginosa J 154): 16 mg/L; MIC (P. aeruginosa R 70): 8 mg/L; effect on bacterial counts through out the duration of the study (in words) [1]: failed to reduce the bacterial counts; Bacterial count (Log10 CFU/ml) 0 hour ([1]; Table 2, single agent 4 mcg/ml): 6.84 Log10 CFU/ml; Bacterial count (Log10 CFU/ml) 2 hour ([1]; Table 2, single agent 4 mcg/ml): 6.81 Log10 CFU/ml; Bacterial count (Log10 CFU/ml) 4 hour ([1]; Table 2, single agent 4 mcg/ml): 7.84 Log10 CFU/ml; Bacterial count (Log10 CFU/ml) 6 hour ([1]; Table 2, single agent 4 mcg/ml): 8.06 Log10 CFU/ml; Bacterial count (Log10 CFU/ml) 0 hour ([1]; Table 2, single agent 8 mcg/ml): 6.84 Log10 CFU/ml; Bacterial count (Log10 CFU/ml) 2 hour ([1]; Table 2, single agent 8 mcg/ml): 6.48 Log10 CFU/ml; Bacterial count (Log10 CFU/ml) 4 hour ([1]; Table 2, single agent 8 mcg/ml): 7.4 Log10 CFU/ml; Bacterial count (Log10 CFU/ml) 6 hour ([1]; Table 2, single agent 8 mcg/ml): 7.54 Log10 CFU/ml; effect on bacterial counts through out the duration of the study (in words) [2]: failed to reduce the bacterial counts; Bacterial count (Log10 CFU/ml) 0 hour ([2]; Table 4, single agent 4 mcg/ml): 6.62 Log10 CFU/ml; Bacterial count (Log10 CFU/ml) 2 hour ([2]; Table 4, single agent 4 mcg/ml): 7.07 Log10 CFU/ml; Bacterial count (Log10 CFU/ml) 4 hour ([2]; Table 4, single agent 4 mcg/ml): 8.35 Log10 CFU/ml; Bacterial count (Log10 CFU/ml) 6 hour ([2]; Table 4, single agent 4 mcg/ml): 8.48 Log10 CFU/ml; Bacterial count (Log10 CFU/ml) 0 hour ([2]; Table 4, single agent 8 mcg/ml): 6.62 Log10 CFU/ml; Bacterial count (Log10 CFU/ml) 2 hour ([2]; Table 4, single agent 8 mcg/ml): 6.9 Log10 CFU/ml; Bacterial count (Log10 CFU/ml) 4 hour ([2]; Table 4, single agent 8 mcg/ml): 7.11 Log10 CFU/ml; Bacterial count (Log10 CFU/ml) 6 hour ([2]; Table 4, single agent 8 mcg/ml): 7.16 Log10 CFU/ml; MIC values (in words) [3]: higher MIC values

Q: For `O=C(NNC(=O)[C@@H]1CC[C@@H]2CN1C(=O)N2OS(=O)(=O)O)[C@@H]1CCNC1` [Compound B, trans-sulfuric acid mono-[2-(N′-[(R)-pyrrolidin-3-carbonyl]-hydrazinocarbonyl)-7-oxo-1,6-diaza-bicyclo[3.2.1]oct-6-yl]ester], which MIC (P. aeruginosa J 154) is on record?
A: The MIC was 8 mg/L.

Q: What about the MIC (P. aeruginosa R 70) of the same compound?
A: The MIC was 2 mg/L.

Q: What about the “effect on bacterial counts through out the duration of the study (in words)” value [1] of the same compound?
A: The value was “failed to reduce the bacterial counts”.

Q: What about the “Bacterial count (Log10 CFU/ml) 0 hour” value ([1]; Table 3, single agent 2 mcg/ml) of the same compound?
A: Its value is 6.81 Log10 CFU/ml.

Q: And the “Bacterial count (Log10 CFU/ml) 2 hour” value ([1]; Table 3, single agent 2 mcg/ml)?
A: The value was 6.48 Log10 CFU/ml.

Q: And the “Bacterial count (Log10 CFU/ml) 4 hour” value ([1]; Table 3, single agent 2 mcg/ml)?
A: Its value is 7.6 Log10 CFU/ml.

Q: And the “Bacterial count (Log10 CFU/ml) 6 hour” value ([1]; Table 3, single agent 2 mcg/ml)?
A: The value was 7.5 Log10 CFU/ml.

Q: And the “Bacterial count (Log10 CFU/ml) 0 hour” value ([1]; Table 3, single agent 4 mcg/ml)?
A: Its value is 6.81 Log10 CFU/ml.

Q: What about the “Bacterial count (Log10 CFU/ml) 2 hour” value ([1]; Table 3, single agent 4 mcg/ml) of the same compound?
A: Its value is 6.54 Log10 CFU/ml.

Q: And the “Bacterial count (Log10 CFU/ml) 4 hour” value ([1]; Table 3, single agent 4 mcg/ml)?
A: The value was 6.65 Log10 CFU/ml.

Q: What about the “Bacterial count (Log10 CFU/ml) 6 hour” value ([1]; Table 3, single agent 4 mcg/ml) of the same compound?
A: The value was 6.7 Log10 CFU/ml.

Q: And the “effect on bacterial counts through out the duration of the study (in words)” value [2]?
A: Its value is “failed to reduce the bacterial counts”.

Q: And the “Bacterial count (Log10 CFU/ml) 0 hour” value ([2]; Table 5, single agent 2 mcg/ml)?
A: Its value is 6.44 Log10 CFU/ml.

Q: What about the “Bacterial count (Log10 CFU/ml) 2 hour” value ([2]; Table 5, single agent 2 mcg/ml) of the same compound?
A: Its value is 7.11 Log10 CFU/ml.

Q: What about the “Bacterial count (Log10 CFU/ml) 4 hours” value ([2]; Table 5, single agent 2 mcg/ml) of the same compound?
A: Its value is 7.3 Log10 CFU/ml.

Q: What about the “Bacterial count (Log10 CFU/ml) 6 hour” value ([2]; Table 5, single agent 2 mcg/ml) of the same compound?
A: The value was 7.6 Log10 CFU/ml.

Q: And the “Bacterial count (Log10 CFU/ml) 0 hour” value ([2]; Table 5, single agent 4 mcg/ml)?
A: The value was 6.44 Log10 CFU/ml.

Q: What about the “Bacterial count (Log10 CFU/ml) 2 hour” value ([2]; Table 5, single agent 4 mcg/ml) of the same compound?
A: Its value is 6.2 Log10 CFU/ml.

Q: And the “Bacterial count (Log10 CFU/ml) 4 hours” value ([2]; Table 5, single agent 4 mcg/ml)?
A: The value was 6.4 Log10 CFU/ml.

Q: And the “Bacterial count (Log10 CFU/ml) 6 hour” value ([2]; Table 5, single agent 4 mcg/ml)?
A: The value was 6.0 Log10 CFU/ml.

Q: What about the “MIC values (in words)” value [3] of the same compound?
A: The value was “higher MIC values”.
